“Also recorded” adds a separate entry of the source. Ends that are not written are not given here.
Tests used:
[1] = test system: human fetal microglia (HFM); amylin receptor; experiment: Intracellular Ca2+ imaging (Fluo-8L-AM, confocal) in human fetal microglia; type: cell-based; conditions: 1 μM
Procedure: Two different types of microglial, primary cultures of human fetal microglia and mouse microglial BV2 cell line, were used for in vitro testing of amylin receptor function. […] Primary mixed glial cultures were prepared from 12- to 15-gestational-week fetuses as previously reported [21, 22]. Briefly, the meninges and blood vessels were removed and the brain tissue was washed in minimum essential medium and mechanically dissociated by repeated trituration through a 20-gauge needle. Cells were centrifuged at 1500g for 10 min and re-suspended in minimum essential medium with 10% fetal bovine serum. The cultures were grown in a 5% CO2 humidified incubator at 37 °C. After mixed glial cultures were completely confluent, human fetal microglia (HFM) were isolated by shaking flasks at 100 rpm (IKA KS-260, IKA Works, Wilmington, NC) for 1 h at 37 °C. The media was then collected and centrifuged at 2500 RCF for 5 min at 4 °C. Cell pellets were re-suspended in microglia plating media (MEM + 10% FBS + 1% penicillin/streptomycin). HFM were plated at a 2 × 10^5 cells per milliliter density, and microglia were allowed to attach overnight before further use for experiments. […] For all in vitro experiments, primary human fetal microglial cultures and BV2 cell cultures, each experiment was performed on a fresh batch of cell cultures and repeated a minimum of four times. Statistical analysis was performed on mean data.
Ca^2+ concentration were monitored with confocal microscopy as described previously [23, 24]. Briefly, HFMs were plated on glass coverslips pre-coated with poly-L-ornithine and incubated at 37 °C for 12–36 h. Then, incubated with 5 μM of membrane-permeant fluorescent Ca^2+-sensitive dye Fluo-8L-AM (AAT Bioquest, Inc., Sunnyvale, CA) for 40 min at room temperature (20–23 °C) within < 2 h before imaging. For Ca^2+ imaging, the superfusate of ion content similar to extracellular brain fluid thus contain the following: 130 mM NaCl, 4 mM KCl, 1 mM MgCl2, 2 mM CaCl2, 10 mM HEPES, and 10 mM glucose (pH 7.35) was applied at a rate of 3 ml/min using a roller pump (Watson-Marlow Alitea, Sin-Can, Calgary, AB, Canada). […] Fluorescence intensity was monitored with a FV-300 laser-scanning confocal microscope (Olympus FV300, Markham, Ontario, Canada) equipped with an argon laser (488 nm) and excitation/emission filters (FF02-520/28-25; Semrock, Inc.) for an emission wavelength at 514 nm, measured with a numerical aperture of 0.95 20× XLUMPlanF1 objective (Olympus). Images were acquired at scan rates of 1.25–1.43 per second using a 2–3× digital zoom at full-frame (512 × 512 pixel) resolution. Regions of interest were drawn around distinct cell bodies, and analysis of time courses of change in fluorescence intensity were generated with FluoView software (version 4.3; Olympus). […]

[2] = test system: NLRP3 in human fetal microglial (HFM) cultures; experiment: NLRP3 immunostaining in human fetal microglia; type: cell-based; conditions: vs basal
Procedure: Two different types of microglial, primary cultures of human fetal microglia and mouse microglial BV2 cell line, were used for in vitro testing of amylin receptor function. This approach provided confirmation of the presence of microglial amylin receptors across species and cross-validated our observations on the function of amylin receptors in both primary cell cultures and a frequently used cell line. Primary mixed glial cultures were prepared from 12- to 15-gestational-week fetuses as previously reported. Briefly, the meninges and blood vessels were removed and the brain tissue was washed in minimum essential medium and mechanically dissociated by repeated trituration through a 20-gauge needle. Cells were centrifuged at 1500g for 10 min and re-suspended in minimum essential medium with 10% fetal bovine serum. The cultures were grown in a 5% CO2 humidified incubator at 37 °C. After mixed glial cultures were completely confluent, human fetal microglia (HFM) were isolated by shaking flasks at 100 rpm (IKA KS-260, IKA Works, Wilmington, NC) for 1 h at 37 °C. The media was then collected and centrifuged at 2500 RCF for 5 min at 4 °C. Cell pellets were re-suspended in microglia plating media (MEM + 10% FBS + 1% penicillin/streptomycin). HFM were plated at a 2 × 10^5 cells per milliliter density, and microglia were allowed to attach overnight before further use for experiments. BV2 cells (kindly provided by Dr. T. Trang, University of Calgary) were cultured in DMEM/F12 media with 10% FBS. For all in vitro experiments, primary human fetal microglial cultures and BV2 cell cultures, each experiment was performed on a fresh batch of cell cultures and repeated a minimum of four times. […]
(§1) For cultured cell immunofluorescent staining, cells were plated on Lab-TEK chamber slide (ThermoFisher) and fixed with 4% paraformaldehyde (PAF) in PBS, then permeabilized with 0.3% Triton X-100 in PBS and blocked with 2% BSA + 10% goat serum for 1 h. […] Fluorescent microscopy images were acquired with an Axioplan-2 fluorescence microscope with AxioVision software (Carl Zeiss Ltd., Toronto, ON, Canada).

caspase-1 in HFM = experiment: Caspase-1 expression, fluorometric assay, human fetal microglia; type: cell-based
Procedure: (§2) Two different types of microglial, primary cultures of human fetal microglia and mouse microglial BV2 cell line, were used for in vitro testing of amylin receptor function. This approach provided confirmation of the presence of microglial amylin receptors across species and cross-validated our observations on the function of amylin receptors in both primary cell cultures and a frequently used cell line. Primary mixed glial cultures were prepared from 12- to 15-gestational-week fetuses as previously reported. Briefly, the meninges and blood vessels were removed and the brain tissue was washed in minimum essential medium and mechanically dissociated by repeated trituration through a 20-gauge needle. Cells were centrifuged at 1500g for 10 min and re-suspended in minimum essential medium with 10% fetal bovine serum. The cultures were grown in a 5% CO2 humidified incubator at 37 °C. […]
as §1

caspase-1 in BV2 cells = experiment: Caspase-1 expression in BV2 cells; type: cell-based, mouse
Procedure: as §2, §1

[3] = test system: cytokine gene expression in HFM; experiment: Cytokine RT-PCR array in human fetal microglia; type: cell-based; conditions: 1 μM, 6 h, vs untreated
Procedure: The PCR array for TNFα, IL1β, and IL23 gene expression used the RT^2 Profiler PCR Array system (96-well assay plate, SABiosciences) following product instruction. […] RNA was isolated with Rneasy Mini kit (Qiagen) as per the product instructions. For each PCR Array, 4 μg of total RNA were used to prepare cDNA with the appropriate first strand kit from SABiosciences. The cDNA was characterized on the iCycler® iQ Real-Time PCR System (Bio-Rad Laboratories) using the RT2 Profiler PCR Arrays. The resulting raw data were then analyzed using the PCR Array Data Analysis Template and expressed as gene expression fold-change after treatment compared to the control untreated HFM cultures.

BV2 cells = experiment: Aβ uptake and plaque-like structure formation in BV2 cells (thioflavin S); type: cell-based, mouse; conditions: BV2, 1 μM, 24 h, thioflavin S staining
Procedure: as §2, §1

AMY3 receptor subtype = conditions: ref [23]; cited from earlier work
Text: (§3) As a neuroendocrine hormone, amylin mediates glycemic regulation, energy balance control, and cognitive/motivational processes. Human amylin also modulates autoimmunity and innate inflammation through regulatory T cells. Amyloid precursor protein (APP) and Aβ interact with variety of G-protein-coupled receptors (GPCRs) including amylin receptors. Amylin receptors (AMYs) are a dimerized calcitonin receptor (CTR) with receptor activity-modifying proteins (RAMPs) and belong to class B GPCRs. We have previously shown that hAmylin and Aβ preferentially activate AMY3 recep ...

[4] = test system: hippocampal long-term potentiation; conditions: ref [20], [39]; cited from earlier work
Text: as §3

AMY3 = experiment: cAMP in-cell Western, AMY3-expressing HEK293 cells; type: cell-based; conditions: 5 min
Text: (§4) In order to characterize the antagonist activity of cAC253 at subtypes of amylin receptors, we compared hAmylin-generated cAMP responses in stably expressed AMY1, AMY2, and AMY3 and CTR receptors in HEK293 cells and wild-type HEK (HEK-WT) cells (Additional file 1).
(§5) For in-cell Western blot cyclic adenosine monophosphate (cAMP) quantification, mouse monoclonal anti-cAMP (R&D Systems) was used as a primary antibody and IRDye 700 goat anti mouse antibody (LI-COR) was used as a secondary antibody. Plates were imaged using an Odyssey Infrared Imaging System (LI-COR), and the integrated intensity was normalized to the total cell number on the same well as previously described.
(§6) Amylin receptor subtypes stably expressed in human embryonic kidney (HEK293) cell-line were generated and characterized as described in a previous published article from our laboratory ( Fu et al., J. Biol. Chem. 2012). […]
(§7) The in-cell Western blot cyclic adenosinemonophosphate (cAMP) quantification was used as previously described (Fu et al., J Biol Chem. 2012). […] The cAMP was measured at 5 min after treatment, i.e., at 5 min after different concentration of hAmylin and/or cAC253 treatment, cells were fixed with 4% paraformaldehyde in PBS for 10 min. […] Plates were imaged using an Odyssey Infrared Imaging System (LI-COR), and the integrated intensity was measured. […]

AMY1 = experiment: cAMP in-cell Western, AMY1-expressing HEK293 cells; type: cell-based; conditions: 5 min
Text: as §4, §5, §6, §7

AMY2 = experiment: cAMP in-cell Western, AMY2-expressing HEK293 cells; type: cell-based; conditions: 5 min
Text: as §4, §5, §6, §7

CTR = experiment: cAMP in-cell Western, CTR-expressing HEK293 cells; type: cell-based; conditions: 5 min
Text: as §4, §5, §6, §7

[5] = test system: HEK wild-type control cells; experiment: cAMP in-cell Western, wild-type HEK cells; type: cell-based, human; conditions: 5 min
Text: as §4, §5
The in-cell Western blot cyclic adenosinemonophosphate (cAMP) quantification was used as previously described (Fu et al., J Biol Chem. 2012). Briefly, amylin receptor stable cells were plated at a density of 4x10^4 cells/well in a 96-well plate and cultured for 24 hours. On the day of experiment, culture media was replaced with serum free DMEM medium and further incubate for 6 h before treatment. The cAMP was measured at 5 min after treatment, i.e., at 5 min after different concentration of hAmylin and/or cAC253 treatment, cells were fixed with 4% paraformaldehyde in PBS for 10 min. […] Plates were imaged using an Odyssey Infrared Imaging System (LI-COR), and the integrated intensity was measured. […]

transgenic AD mice = conditions: systemic administration, ref [40], [41]; cited from earlier work
Text: as §3

| Substance | Time to Ca2+ increase after entry of the peptide into the imaging chamber ([1]; 30 s application) | NLRP3 level [2] | NLRP3 level ([2]; listed as Aβ) | Caspase-1 expression (caspase-1 in HFM) | Caspase-1 expression (caspase-1 in BV2 cells) | IL1β gene expression [3] | TNFα gene expression [3] | Uptake of Aβ1–42 and formation of plaque-like structures (BV2 cells) | Activation of AMY3 receptor subtype with downstream MAPK and Akt signaling (AMY3 receptor subtype) | Effect on hippocampal long-term potentiation [4] | Time of return of Ca2+ to base line ([1]; 30 s application) | Intracellular Ca2+ change ([1]; bath application 30 s, Fluo-8, pooled n = 123 HFM in 12 culture wells, four batches) | Receptor activation (cAMP) (AMY3) | Receptor activation (cAMP) (AMY1) | Receptor activation (cAMP) (AMY2) | Receptor activation (cAMP) (CTR) | cAMP response [5] | Effect on hAmylin- and Aβ-induced depression of hippocampal long-term potentiation [4] | Amyloid burden in the brain (transgenic AD mice) | Efflux of Aβ across the blood brain barrier (transgenic AD mice) |
| --- | --- | --- | --- | --- | --- | --- | --- | --- | --- | --- | --- | --- | --- | --- | --- | --- | --- | --- | --- | --- |
| Aβ1–42: soluble oligomeric amyloid beta 1–42 peptide from rPeptide | ≤ 1 min | Increased activation of the inflammasome, NLRP3 | increased significantly | increased | increased | increases | increases | uptake of the peptide into the microglia and formation of plaque-like structures on the cell surface; also recorded: taken up into the cells and formed plaque-like structures | preferentially activate AMY3 receptor subtype | depression of hippocampal long-term potentiation | – | – | – | – | – | – | – | – | – | – |
| hAmylin: human amylin, the endogenous peptide that binds to the amylin receptor; purchased from American Peptide (KCNTATCATQRLANFLVHSSNNFGAILSSTNVGSNTY; not fully specified (C-terminus, bridges); cysteine pairing not given here; UniProt P10997 34-70, looked up) | ≤ 1 min | increased significantly; also recorded: Increased activation of the inflammasome, NLRP3 | – | increased | increased | increases | increases | – | preferentially activate AMY3 receptor subtype | depression of hippocampal long-term potentiation | ≤ 2 min | robust Ca^2+ increase | activated | activated | not significantly | not significantly | not significantly | – | – | – |
| pramlintide | – | – | – | – | – | – | – | – | – | – | – | – | – | – | – | – | – | attenuate | reduce amyloid burden in the brain | promoting an efflux of Aβ across the blood brain barrier |

Reference: article PMC5639602, “Role of microglial amylin receptors in mediating beta amyloid (Aβ)-induced inflammation” (Journal of Neuroinflammation, 2017)
